Like-named read-outs stand apart in the source and are kept apart here.
Key:
[1] = tested on: antibody-antigen reactions (PCA); test: PCA (rat), procedure of Herzig; reduction of allergic responses to antigen challenge; assay type: in vivo
Description: When tested in accordance with the procedure of Herzig [Immunopharmacology, M. E. Rosenthale and H. C. Mansmann, Eds., John Wiley and Son, N.Y., 1975], these compounds as shown in Table I may be administered orally, parenterally, or by aerosol at a dose of 0.005-20mg/kg. Compounds of this invention are useful in the management of allergic reactions such as bronchial asthma.

[2] = Netherlands Pat. No. 6,414,717; cited from earlier work
[3] = rat, iv., read-out: ED50 - PCA (rat) iv.

Compound | ED50 - PCA (rat) ip., in words ([1]; rat, ip., dose not given) | ED50 [1, 3] | ED50 - PCA (rat) po., in words ([1]; rat, po., dose not given) | activity when given intravenously ([1]; intravenously) | activity when given orally ([1]; orally) | ED50 ([1]; rat, ip., read-out: ED50 - PCA (rat) ip.) | ED50 ([1]; rat, po., read-out: ED50 - PCA (rat) po.) | activity compared with isomers of the invention ([1]; comparison in words, Table I) | PCA (rat) inhibition, ip. ([1]; rat, ip., 10mg/kg) | PCA (rat) activity, po., in words ([1]; rat, po., 10mg/kg) | anti-inflammatory action [2]
O=C(O)c1cc(=O)c2c(OCC(O)COc3cccc4oc(C(=O)O)cc(=O)c34)cccc2o1 [Intal] | inact. | 1 to 2 mg/kg | inactive | – | – | – | – | – | – | – | –
O=C(O)c1ccc2nc3ccccc3c(=O)n2c1 [Example 1, 11-oxo-11H-pyrido[2,1-b]quinazoline-8-carboxylic acid] | – | 0.2 mg/kg | – | active | active | 2 mg/kg | 2 mg/kg | – | – | – | –
O=C(O)c1cccn2c(=O)c3ccccc3nc12 [Example 799] | – | – | – | – | – | – | – | less active | 21% | inactive | possesses anti-inflammatory action
